{
  "source": "patent US20120202756A1",
  "about": "“USE OF PRODRUGS TO AVOID GI MEDIATED ADVERSE EVENTS” (priority 2009, published 2012)",
  "assay_in_all_cases": "microbe, parasite or virus in culture",
  "key": {"Clostridium novyi": {"tested_on": "Clostridium novyi", "conditions": "ATCC19402, read-out: Minimum inhibitory concentration"}, "Corynebacterium jeikeium": {"tested_on": "Corynebacterium jeikeium", "conditions": "read-out: Minimum inhibitory concentration"}, "Prevotella intermedia": {"tested_on": "Prevotella intermedia", "conditions": "read-out: Minimum inhibitory concentration"}, "Enterococcus faecium": {"tested_on": "Enterococcus faecium", "conditions": "read-out: Minimum inhibitory concentration"}, "Enterococcus faecalis": {"tested_on": "Enterococcus faecalis", "conditions": "ATCC29212, read-out: Minimum inhibitory concentration"}, "Clostridium sordellii": {"tested_on": "Clostridium sordellii", "conditions": "Paraclostridium sordellii, NCTC13356, read-out: Minimum inhibitory concentration"}, "Prevotella denticola": {"tested_on": "Prevotella denticola", "conditions": "read-out: Minimum inhibitory concentration"}, "Streptococcus oralis": {"tested_on": "Streptococcus oralis", "conditions": "read-out: Minimum inhibitory concentration"}, "[1]": {"tested_on": "Streptococcus constellatus", "conditions": "read-out: Minimum inhibitory concentration"}, "[2]": {"tested_on": "Fusobacterium necrophorum", "conditions": "read-out: Minimum inhibitory concentration"}, "[3]": {"tested_on": "Porphyromonas endodontalis", "conditions": "read-out: Minimum inhibitory concentration"}, "Streptococcus mitis": {"tested_on": "Streptococcus mitis", "conditions": "read-out: Minimum inhibitory concentration"}, "Veillonella spp.": {"tested_on": "Veillonella spp.", "conditions": "read-out: Minimum inhibitory concentration"}, "Prevotella oralis": {"tested_on": "Prevotella oralis", "conditions": "Hoylesella oralis, read-out: Minimum inhibitory concentration"}, "[4]": {"tested_on": "Peptostreptococcus magnus", "conditions": "Finegoldia magna, read-out: Minimum inhibitory concentration"}},
  "data": [
    {"compound": "CCC[C@@H]1C[C@@H](C(=O)N[C@@H]([C@H]2O[C@H](SC)[C@H](O)[C@@H](O)[C@H]2O)[C@H](C)Cl)N(C)C1", "note": "[Clindamycin, clindamycin, reference compound]", "values": [
      {"measurement": "MIC", "setting": "Clostridium novyi", "value": "≤ 0.03", "unit": "µg/mL"},
      {"measurement": "MIC", "setting": "Corynebacterium jeikeium", "value": "> 64", "unit": "µg/mL"},
      {"measurement": "MIC", "setting": "Prevotella intermedia", "value": "≤ 0.03", "unit": "µg/mL"},
      {"measurement": "MIC", "setting": "Enterococcus faecium", "value": 32, "unit": "µg/mL"},
      {"measurement": "MIC", "setting": "Enterococcus faecalis", "value": 8, "unit": "µg/mL"},
      {"measurement": "MIC", "setting": "Clostridium sordellii", "value": 0.5, "unit": "µg/mL"},
      {"measurement": "MIC", "setting": "Prevotella denticola", "value": "≤ 0.03", "unit": "µg/mL"},
      {"measurement": "MIC", "setting": "Streptococcus oralis", "value": "≤ 0.03", "unit": "µg/mL"},
      {"measurement": "MIC", "setting": "[1]", "value": "≤ 0.03", "unit": "µg/mL"},
      {"measurement": "MIC", "setting": "[2]", "value": "≤ 0.03", "unit": "µg/mL"},
      {"measurement": "MIC", "setting": "[3]", "value": "≤ 0.03", "unit": "µg/mL"},
      {"measurement": "MIC", "setting": "Streptococcus mitis", "value": "≤ 0.03", "unit": "µg/mL"},
      {"measurement": "MIC", "setting": "Veillonella spp.", "value": "≤ 0.03", "unit": "µg/mL"},
      {"measurement": "MIC", "setting": "Prevotella oralis", "value": "≤ 0.03", "unit": "µg/mL"},
      {"measurement": "MIC", "setting": "[4]", "value": 0.5, "unit": "µg/mL"}
    ]}
  ]
}
